In patent US20260125346A1, “Isoquinolinone Derivatives and 4H-Quinolizinone Derivatives and Pharmaceutical Compositions Thereof for the Treatment of Disease” (BeOne Medicines I GmbH, priority 2023, published 2026):

Experiments:
[1] = target: PI3Kα (p110/p85) kinase (wild type, "WT") (Homo sapiens, UniProt P42336); experiment: PI3Kα (p110/p85) kinase ADP-Glo Assay; assay type: biochemical; settings: 25 uM ATP
Outline: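 Wild-type PI3Kα p110/p85 preincubated 30 min at RT with PI(4,5)P2:PS substrate ([…]) and compound ([…]) in HEPES pH7.5 buffer with MgCl2, DTT and BSA; reaction started with 25 µM ATP for 120 min at RT. ADP measured by ADP-Glo luminescence; IC50 from four-parameter logistic fit.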

[2] = target: PI3Kα (p110[H1047R]/p85) kinase (Homo sapiens, UniProt P42336, H1047R); experiment: PI3Kα (p110[H1047R]/p85) kinase ADP-Glo Assay; assay type: biochemical; settings: 25 uM ATP; for selectivity: WT/H1047R: ADP-Glo Assay IC50 ratio
Outline: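 PI3Kα H1047R/p85 pre-incubated 30 min at room temperature with PI(4,5)P2:PS substrate ([…]) and compound ([…]) in HEPES pH 7.5 buffer with MgCl2; ATP ([…]) then added for 120 min. ADP quantified by ADP-Glo luminescence; IC50 from four-parameter logistic fit.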

[3] = tested on: PI3Kα H1047R mutated cell line T-47D; experiment: Phospho-AKT (Ser473) Inhibition Assay (HTRF), T-47D; assay type: cell-based; settings: for IC50: Homo sapiens, T47D, T-47D, 1 hour treatment, read-out: p-AKT Inhibition assay (S473) IC50 T-47D; for Selectivity: SK-BR-3/T-47D (p-AKT): p-AKT (S473) IC50 ratio
Outline: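 Cells seeded overnight in insulin-supplemented MEM, then treated 1 h with 11-point 1:3 compound dilutions (10 μM to 0.1 nM final, 0.1% DMSO). Lysates assayed for phospho-AKT Ser473 by HTRF; IC50 from 4-parameter logistic fit, normalised to DMSO (max) and 10 μM GDC0077 (min).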

PI3Kα (p110/p85) kinase (wild type, "WT"), sequence (P42336 whole entry): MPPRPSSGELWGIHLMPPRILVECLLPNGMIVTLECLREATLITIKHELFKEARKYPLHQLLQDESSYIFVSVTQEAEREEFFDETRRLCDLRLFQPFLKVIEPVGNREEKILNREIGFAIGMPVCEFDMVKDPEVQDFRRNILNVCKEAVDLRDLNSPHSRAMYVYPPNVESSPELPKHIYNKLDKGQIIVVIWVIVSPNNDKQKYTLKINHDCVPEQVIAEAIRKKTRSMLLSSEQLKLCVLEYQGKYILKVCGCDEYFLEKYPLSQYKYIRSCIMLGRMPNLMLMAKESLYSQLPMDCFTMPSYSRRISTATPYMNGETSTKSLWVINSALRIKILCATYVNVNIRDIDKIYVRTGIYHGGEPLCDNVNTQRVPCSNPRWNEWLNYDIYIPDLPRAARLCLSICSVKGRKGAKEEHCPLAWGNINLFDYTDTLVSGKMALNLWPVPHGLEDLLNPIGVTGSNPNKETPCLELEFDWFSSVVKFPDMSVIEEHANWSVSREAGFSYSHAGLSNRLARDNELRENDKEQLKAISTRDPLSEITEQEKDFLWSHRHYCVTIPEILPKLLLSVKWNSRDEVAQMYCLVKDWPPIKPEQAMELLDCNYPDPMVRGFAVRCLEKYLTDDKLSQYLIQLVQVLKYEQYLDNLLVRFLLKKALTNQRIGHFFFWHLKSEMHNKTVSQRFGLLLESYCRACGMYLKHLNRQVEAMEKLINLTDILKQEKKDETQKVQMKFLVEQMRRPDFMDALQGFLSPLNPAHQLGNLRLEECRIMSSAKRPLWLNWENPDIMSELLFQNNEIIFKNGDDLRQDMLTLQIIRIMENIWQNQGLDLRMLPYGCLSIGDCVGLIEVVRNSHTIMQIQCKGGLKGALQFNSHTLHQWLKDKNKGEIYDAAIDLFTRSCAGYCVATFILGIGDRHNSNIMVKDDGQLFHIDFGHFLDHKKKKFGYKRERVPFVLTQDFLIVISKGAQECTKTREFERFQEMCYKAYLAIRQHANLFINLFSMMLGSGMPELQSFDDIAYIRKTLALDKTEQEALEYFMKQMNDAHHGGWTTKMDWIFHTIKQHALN
PI3Kα (p110/p85) kinase (wild type, "WT"), sequence (P27986 whole entry partner): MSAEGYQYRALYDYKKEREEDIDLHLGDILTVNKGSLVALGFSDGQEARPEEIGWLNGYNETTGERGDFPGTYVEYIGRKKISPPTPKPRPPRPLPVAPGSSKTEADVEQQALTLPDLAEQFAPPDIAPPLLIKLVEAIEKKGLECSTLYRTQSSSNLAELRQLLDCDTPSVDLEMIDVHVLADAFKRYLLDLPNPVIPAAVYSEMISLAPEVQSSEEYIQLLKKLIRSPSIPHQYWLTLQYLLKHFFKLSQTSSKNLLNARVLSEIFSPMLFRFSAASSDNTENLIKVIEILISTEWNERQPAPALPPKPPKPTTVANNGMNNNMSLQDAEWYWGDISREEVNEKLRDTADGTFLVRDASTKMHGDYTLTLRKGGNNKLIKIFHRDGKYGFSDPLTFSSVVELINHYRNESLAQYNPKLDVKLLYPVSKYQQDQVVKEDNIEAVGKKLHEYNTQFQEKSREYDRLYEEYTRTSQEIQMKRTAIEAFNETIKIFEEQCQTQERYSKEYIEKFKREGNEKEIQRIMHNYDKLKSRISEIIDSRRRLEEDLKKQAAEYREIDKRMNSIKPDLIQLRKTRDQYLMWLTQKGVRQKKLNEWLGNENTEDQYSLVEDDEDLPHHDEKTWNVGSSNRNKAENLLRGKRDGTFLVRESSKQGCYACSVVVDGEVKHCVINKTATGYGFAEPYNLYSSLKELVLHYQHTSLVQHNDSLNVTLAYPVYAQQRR
PI3Kα (p110[H1047R]/p85) kinase, sequence (P42336 whole entry H1047R): as the sequence (P42336 whole entry) above, with H1047R counted along it
PI3Kα (p110[H1047R]/p85) kinase, sequence (P27986 whole entry partner): as the sequence (P27986 whole entry partner) above

SMILES	IC50 [1]	IC50 [2]	selectivity: WT/H1047R [2]	IC50 [3]	Selectivity: SK-BR-3/T-47D (p-AKT) [3]
Cc1cc(C(C)Nc2ccccc2C(=O)O)c2cc(-c3ccc(F)cc3)n(-c3nccs3)c(=O)c2c1 (stereo not drawn) [Example 71, 2-((1-(3-(4-fluorophenyl)-7-methyl-1-oxo-2-(thiazol-2-yl)-1,2-dihydroisoquinolin-5-yl)ethyl)amino)benzoic acid]	14200 nM	312 nM	45.7	102 nM	55.0
COc1cccc(-c2cc3c(C(C)Nc4ccccc4C(=O)O)cc(C)cc3c(=O)n2C)c1 (stereo not drawn) [Example 13, 2-((1-(3-(3-methoxyphenyl)-2,7-dimethyl-1-oxo-1,2-dihydroisoquinolin-5-yl)ethyl)amino)benzoic acid]	5820 nM	192 nM	30.3	64 nM	56.1
Cc1cc(C(C)Nc2ccccc2C(=O)O)c2cc(-c3cccc(C#N)c3)n(C)c(=O)c2c1 (stereo not drawn) [Example 3, 2-((1-(3-(3-cyanophenyl)-2,7-dimethyl-1-oxo-1,2-dihydroisoquinolin-5-yl)ethyl)amino)benzoic acid]	9850 nM	671 nM	14.7	168 nM	26.0
Cc1cc(C(C)Nc2ccccc2C(=O)O)c2cc(C#Cc3cnn(C)c3)n(C)c(=O)c2c1 (stereo not drawn) [Example 80, 2-((1-(2,7-dimethyl-3-((1-methyl-1H-pyrazol-4-yl)ethynyl)-1-oxo-1,2-dihydroisoquinolin-5-yl)ethyl)amino)benzoic acid]	3280 nM	304 nM	10.8	69.8 nM	44.1
Cc1cc(C(C)Nc2ccccc2C(=O)O)c2cc(-c3ccc(C4(O)CCOCC4)cc3)n(C)c(=O)c2c1 (stereo not drawn) [Example 73, 2-((1-(3-(4-(4-hydroxytetrahydro-2H-pyran-4-yl)phenyl)-2,7-dimethyl-1-oxo-1,2-dihydroisoquinolin-5-yl)ethyl)amino)benzoic acid]	26100 nM	1030 nM	25.4	924 nM	>10.82
Cc1cc([C@@H](C)Nc2ccccc2C(=O)O)c2cc(-c3ccc(-c4cnn(C)c4)cc3)n(C)c(=O)c2c1 [Example 40, (R)-2-((1-(2,7-dimethyl-3-(4-(1-methyl-1H-pyrazol-4-yl)phenyl)-1-oxo-1,2-dihydroisoquinolin-5-yl)ethyl)amino)benzoic acid]	5120 nM	55 nM	93.1	24.3 nM	33.5
Cc1cc(C(C)Nc2ccccc2C(=O)O)c2cc(-c3ccc(C(C)(C)O)cc3)n(C)c(=O)c2c1 (stereo not drawn) [Example 51, 2-((1-(3-(4-(2-hydroxypropan-2-yl)phenyl)-2,7-dimethyl-1-oxo-1,2-dihydroisoquinolin-5-yl)ethyl)amino)benzoic acid]	10400 nM	247 nM	42.1	167 nM	38.7
Cc1cc(C(C)Nc2ccccc2C(=O)O)c2cc(/C=C/c3ccccc3)n(C)c(=O)c2c1 (stereo not drawn) [Example 44, (E)-2-((1-(2,7-dimethyl-1-oxo-3-styryl-1,2-dihydroisoquinolin-5-yl)ethyl)amino)benzoic acid]	1840 nM	795 nM	2.3	560 nM	3.8
Cc1cc(C(C)Nc2ccccc2C(=O)O)c2cc(-c3ccc(C(F)(F)F)nc3)n(C)c(=O)c2c1 (stereo not drawn) [Example 86, 2-((1-(2,7-dimethyl-1-oxo-3-(6-(trifluoromethyl)pyridin-3-yl)-1,2-dihydroisoquinolin-5-yl)ethyl)amino)benzoic acid]	15100 nM	575 nM	26.3	372 nM	>27
Cc1cc(C(C)Nc2ccccc2C(=O)O)c2cc(-c3cccc(C(C)(C)C#N)c3)n(C)c(=O)c2c1 (stereo not drawn) [Example 5, 2-((1-(3-(3-(2-cyanopropan-2-yl)phenyl)-2,7-dimethyl-1-oxo-1,2-dihydroisoquinolin-5-yl)ethyl)amino)benzoic acid]	5280 nM	375 nM	14.1	135 nM	34.3
Cc1cc([C@@H](C)Nc2ccccc2C(=O)O)c2cc(-c3ccccc3)n(C)c(=O)c2c1 [Example 30, (R)-2-((1-(2,7-dimethyl-1-oxo-3-phenyl-1,2-dihydroisoquinolin-5-yl)ethyl)amino)benzoic acid]	2500 nM	104 nM	24.1	22 nM	113.7
Cc1cc(C(C)Nc2ccccc2C(=O)O)c2cc(NC(=O)c3ccccc3)n(C)c(=O)c2c1 (stereo not drawn) [Example 24, 2-((1-(3-benzamido-2,7-dimethyl-1-oxo-1,2-dihydroisoquinolin-5-yl)ethyl)amino)benzoic acid]	39200 nM	1030 nM	38.2	3140 nM	>3.1
